# Measured values taken from US9643967B2, “Pyrrolo[3,2-c]pyridine derivatives as TLR inhibitors” (TAKEDA PHARMACEUTICAL COMPANY LIMITED, priority 2013, dated 2017).
# Biological target: T1, hTLR9 (Homo sapiens, UniProt Q9NR96)
# T1 construct: expressed in transfected cells; host or cells: HEK-Blue-hTLR9 cells (HEK293)
# T1 sequence (Q9NR96 26-1032): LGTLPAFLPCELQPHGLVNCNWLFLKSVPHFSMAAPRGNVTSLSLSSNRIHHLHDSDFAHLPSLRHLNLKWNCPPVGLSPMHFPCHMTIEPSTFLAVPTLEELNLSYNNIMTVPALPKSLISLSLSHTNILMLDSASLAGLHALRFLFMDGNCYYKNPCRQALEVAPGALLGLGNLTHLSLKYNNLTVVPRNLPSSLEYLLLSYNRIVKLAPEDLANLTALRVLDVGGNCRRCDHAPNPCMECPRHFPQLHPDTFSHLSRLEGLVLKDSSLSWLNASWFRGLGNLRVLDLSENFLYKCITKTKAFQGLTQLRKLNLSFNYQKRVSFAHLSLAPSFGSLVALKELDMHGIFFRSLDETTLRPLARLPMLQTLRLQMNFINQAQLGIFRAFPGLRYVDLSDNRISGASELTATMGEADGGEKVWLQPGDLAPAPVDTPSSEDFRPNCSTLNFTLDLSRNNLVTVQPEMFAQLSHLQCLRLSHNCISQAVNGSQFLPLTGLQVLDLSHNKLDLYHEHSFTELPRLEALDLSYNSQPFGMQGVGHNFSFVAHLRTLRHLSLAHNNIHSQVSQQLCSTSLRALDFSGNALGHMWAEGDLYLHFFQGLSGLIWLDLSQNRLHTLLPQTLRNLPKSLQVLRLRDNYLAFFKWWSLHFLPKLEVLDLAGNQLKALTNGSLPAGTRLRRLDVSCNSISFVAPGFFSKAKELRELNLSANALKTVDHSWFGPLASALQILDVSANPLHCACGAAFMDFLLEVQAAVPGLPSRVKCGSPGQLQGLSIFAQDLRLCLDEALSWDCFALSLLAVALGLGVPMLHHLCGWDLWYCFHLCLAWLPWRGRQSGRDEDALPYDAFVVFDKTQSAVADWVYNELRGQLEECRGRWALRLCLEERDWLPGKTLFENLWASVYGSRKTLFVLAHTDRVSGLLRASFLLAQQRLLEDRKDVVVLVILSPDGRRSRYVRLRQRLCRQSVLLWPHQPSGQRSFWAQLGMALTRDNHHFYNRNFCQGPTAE
# Assay: hTLR9 antagonism (SEAP inhibition assay) in HEK-Blue-hTLR9 (HEK293) cells, ODN-2006 stimulated
# Format: cell-based
# Conditions: 1 μM; SEAP, HEK-Blue-hTLR9 cells
# Protocol: hTLR9 Antagonism (SEAP Inhibition Assay) in HEK293 Cell Lines
# The SEAP reporter gene in HEK-Blue™-hTLR9 cells is placed under the control of the IFN-b minimal promoter fused to five NF-kB and AP-1 binding sites. The stimulation with a TLR9 ligand (ODN-2006) activates NF-kB and AP-1 which induces the production of SEAP. Levels of SEAP are determined with QUANTI-Blue™ detection medium that turns purple/blue in the presence of alkaline phosphatase. Decrease in the levels of SEAP production as indicated by reduction in absorbance at 650 nm is directly co-related with the TLR9 inhibitory activity of the antagonist (NCE).
# HEK-Blue™-hTLR9 cells were maintained in DMEM with 10% FBS, 1% Penicillin/Streptomycin/Amphotericin (complete growth medium) and 0.2% Normocin. For the assay, cells were dissociated by washing in 1×PBS and re-suspended in complete DMEM. Cells were seeded at a density of 20000 cells per well; (40 μl per well) in a 384 well assay plate.
# 5 μl of 10× antagonist (NCE) was added to the cells in triplicates for each concentration. The plate was incubated for half an hour at 37° C. with 5% CO2. 5 μl of agonist (ODN-2006) was added and the plate was incubated overnight for 18 hours at 37° C. with 5% CO2. 5 μl of supernatant was transferred to a 384 well reading plate and to this 45 μl of Quanti-Blue™ detection reagent was added. The plate was then incubated for an hour at 37° C. SEAP activity in the supernatant was indicated by change in the pink color of Quanti-Blue™ detection reagent to purple/blue and the absorbance was read at 650 nm in the end point mode.
row,hTLR9 inhibitory activity (% at 1 μM) [%],SMILES
1,95.8,"CC(C)N1CCN(C2CCC(c3nccc4[nH]c(CN5CCOCC5)cc34)CC2)CC1 (centres unmarked) [Example A80, 4-[[4-[4-(4-isopropylpiperazin-1-yl)cyclohexyl]-1H-pyrrolo[3,2-c]pyridin-2-yl]methyl]morpholine]"

# Same assay, conditions: HEK-Blue hTLR9, 1 μM; SEAP, HEK-Blue-hTLR9 cells; read-out: hTLR9 inhibitory activity (% at 1 μM)
row,inhibition at 1 µM [%],SMILES
1,100,"Cc1cc2[nH]c(CN3CCOCC3)cc2c(-c2ccc(C3CCN(C(C)C)CC3)cc2)n1 [Example A51, 4-[[4-[4-(1-isopropyl-4-piperidyl)phenyl]-6-methyl-1H-pyrrolo[3,2-c]pyridin-2-yl]methyl]morpholine]"
2,77,"CC(C)N1CCN(c2ccc(-c3nccc4[nH]c(CN5CCOCC5)cc34)cn2)CC1 [Example A53, 4-[[4-[6-(4-isopropylpiperazin-1-yl)-3-pyridyl]-1H-pyrrolo[3,2-c]pyridin-2-yl]methyl]morpholine]"
3,95.4,"CC(C)N1CCC(n2cc(-c3nccc4[nH]c(CN5CCOCC5)cc34)cn2)CC1 [Example A54, 4-[[4-[1-(1-isopropyl-4-piperidyl)pyrazol-4-yl]-1H-pyrrolo[3,2-c]pyridin-2-yl]methyl]morpholine]"
4,96.5,"CC(C)N1CCN(Cc2ccc(-c3nccc4[nH]c(CN5CCOCC5)cc34)cc2)CC1 [Example A55, 4-[[4-[4-[(4-isopropylpiperazin-1-yl)methyl]phenyl]-1H-pyrrolo[3,2-c]pyridin-2-yl]methyl]morpholine]"
5,99.5,"CC(C)N1CCC(Oc2ccc(-c3nccc4[nH]c(CN5CCOCC5)cc34)cc2)CC1 [Example A56, 4-[[4-[4-[(1-isopropyl-4-piperidyl)oxy]phenyl]-1H-pyrrolo[3,2-c]pyridin-2-yl]methyl]morpholine]"
6,96.9,"CC(C)N1CCN(c2cccc(-c3nccc4[nH]c(CN5CCOCC5)cc34)c2)CC1 [Example A57, 4-[[4-[3-(4-isopropylpiperazin-1-yl)phenyl]-1H-pyrrolo[3,2-c]pyridin-2-yl]methyl]morpholine]"
7,86,"CN1CCN(Cc2ccc(-c3nccc4[nH]c(CN5CCOCC5)cc34)cc2)CC1 [Example A60, 4-[[4-[4-[(4-methylpiperazin-1-yl)methyl]phenyl]-1H-pyrrolo[3,2-c]pyridin-2-yl]methyl]morpholine]"
8,89.5,"CN1CCN(c2cccc(-c3nccc4[nH]c(CN5CCOCC5)cc34)c2)CC1 [Example A61, 4-[[4-[3-(4-methylpiperazin-1-yl)phenyl]-1H-pyrrolo[3,2-c]pyridin-2-yl]methyl]morpholine]"
9,98.2,"CN1CCC(Oc2ccc(-c3nccc4[nH]c(CN5CCOCC5)cc34)cc2)CC1 [Example A62, 4-[[4-[4-[(1-methyl-4-piperidyl)oxy]phenyl]-1H-pyrrolo[3,2-c]pyridin-2-yl]methyl]morpholine]"
10,93.4,"CN1CCC(n2cc(-c3nccc4[nH]c(CN5CCOCC5)cc34)cn2)CC1 [Example A63, 4-[[4-[1-(1-methyl-4-piperidyl)pyrazol-4-yl]-1H-pyrrolo[3,2-c]pyridin-2-yl]methyl]morpholine]"
11,73,"CC(C)N1CCC(c2ccc(-c3nccc4[nH]c(CN5CCOCC5)cc34)cn2)CC1 [Example A64, 4-[[4-[6-(1-isopropyl-4-piperidyl)-3-pyridyl]-1H-pyrrolo[3,2-c]pyridin-2-yl]methyl]morpholine]"
12,100,"CC(C)N1CCC(c2ccc(-c3nccc4[nH]c(CN5CCOCC5)cc34)cc2)CC1 [Example A70, 4-[[4-[4-(1-isopropyl-4-piperidyl)phenyl]-1H-pyrrolo[3,2-c]pyridin-2-yl]methyl]morpholine]"
13,100,"CC(C)N1CCN(c2ccc(-c3nccc4[nH]c(CN5CC(O)C5)cc34)cc2)CC1 [Example A72, 1-[[4-[4-(4-isopropylpiperazin-1-yl)phenyl]-1H-pyrrolo[3,2-c]pyridin-2-yl]methyl]azetidin-3-ol]"
14,89.4,"CC(C)N1CCN(c2ccc(-c3nccc4[nH]c(CN5CCC[C@@H]5C(=O)O)cc34)cc2)CC1 [Example A74, (2R)-1-[[4-[4-(4-isopropylpiperazin-1-yl)phenyl]-1H-pyrrolo[3,2-c]pyridin-2-yl]methyl]pyrrolidine-2-carboxylic acid]"
15,64,"c1cc2[nH]c(CN3CCOCC3)cc2c(-c2ccc(N3CCN(C4COC4)CC3)cc2)n1 [Example A81, 4-[[4-[4-[4-(oxetan-3-yl)piperazin-1-yl]phenyl]-1H-pyrrolo[3,2-c]pyridin-2-yl]methyl]morpholine]"
16,100,"CC(C)N1CCN(c2ccc(-c3nccc4[nH]c(CCN5CCOCC5)cc34)cc2)CC1 [Example B1, 4-[2-[4-[4-(4-isopropylpiperazin-1-yl)phenyl]-1H-pyrrolo[3,2-c]pyridin-2-yl]ethyl]morpholine]"
17,100,"CN1CCN(c2ccc(-c3nccc4[nH]c(CCN5CCOCC5)cc34)cc2)CC1 [Example B2, 4-[2-[4-[4-(4-methylpiperazin-1-yl)phenyl]-1H-pyrrolo[3,2-c]pyridin-2-yl]ethyl]morpholine]"
18,100,"Cc1cc2[nH]c(CCN3CCOCC3)cc2c(-c2ccc(N3CCN(C(C)C)CC3)cc2)n1 [Example B3, 4-[2-[4-[4-(4-isopropylpiperazin-1-yl)phenyl]-6-methyl-1H-pyrrolo[3,2-c]pyridin-2-yl]ethyl]morpholine]"
19,100,"Cc1cc2[nH]c(CCN3CCOCC3)cc2c(-c2ccc(N3CCN(C)CC3)cc2)n1 [Example B4, 4-[2-[6-methyl-4-[4-(4-methylpiperazin-1-yl)phenyl]-1H-pyrrolo[3,2-c]pyridin-2-yl]ethyl]morpholine]"
20,78,"Cc1cc2[nH]c(CCN3CCCCC3)cc2c(-c2ccc(N3CCN(C(C)C)CC3)cc2)n1 [Example B5, 4-[4-(4-isopropylpiperazin-1-yl)phenyl]-6-methyl-2-[2-(1-piperidyl)ethyl]-1H-pyrrolo[3,2-c]pyridine]"
21,81.6,"Cc1nc(-c2ccc(N3CCN(C)CC3)cc2)c2cc(CCN3CCOCC3)[nH]c2c1C [Example B7, 4-[2-[6,7-dimethyl-4-[4-(4-methylpiperazin-1-yl)phenyl]-1H-pyrrolo[3,2-c]pyridin-2-yl]ethyl]morpholine]"
22,93.7,"CCN1CCN(c2ccc(-c3nc(C)c(C)c4[nH]c(CCN5CCOCC5)cc34)cc2)CC1 [Example B8, 4-[2-[4-[4-(4-ethylpiperazin-1-yl)phenyl]-6,7-dimethyl-1H-pyrrolo[3,2-c]pyridin-2-yl]ethyl]morpholine]"
23,93.1,"Cc1nc(-c2ccc(N3CCN(C(C)C)CC3)cc2)c2cc(CCN3CCCC3)[nH]c2c1C [Example B10, 4-[4-(4-isopropylpiperazin-1-yl)phenyl]-6,7-dimethyl-2-(2-pyrrolidin-1-ylethyl)-1H-pyrrolo[3,2-c]pyridine]"

row,SMILES,inhibition at 1 µM [%]
1,"CC(C)N1CC=C(c2ccc(-c3nccc4[nH]c(CN5CCOCC5)cc34)cn2)CC1 [Example A52, 4-[[4-[6-(1-isopropyl-3,6-dihydro-2H-pyridin-4-yl)-3-pyridyl]-1H-pyrrolo[3,2-c]pyridin-2-yl]methyl]morpholine]",84.5

# Same assay, conditions: HEK-Blue hTLR9, read-out: hTLR9 inhibitory activity (% at 1 μM)
row,SMILES,inhibition at 1 µM [%]
1,"CC(C)N1CCN(c2ccc(-c3nccc4[nH]c(C(=O)N5CCOCC5)cc34)cc2)CC1 [Example A82, [4-[4-(4-isopropylpiperazin-1-yl)phenyl]-1H-pyrrolo[3,2-c]pyridin-2-yl]-morpholino-methanone]",98
